One may read the Papp A→B as the apparent permeability from the apical to the basolateral side of a cell layer. The low end stands for slow passage, the high end for fast passage. In general, IC50 refers to the concentration at which inhibition is half-maximal.

Results on 9 compounds are retold here after US20230250123A1, “GUT MICROBIOTA BIOACTIVATED PDE4 INHIBITOR PRECURSORS” (Giiant Pharma Inc., priority 2020, published 2023).

Data set [1] in a line: Negative control: incubation in mouse feces extract supernatant inactivated by boiling. The format is in vitro ADME. Conditions: 24 hours, mouse feces supernatant boiled 10 minutes (no enzyme activities). As to the method:
(§1) In vitro rate of glycoside prodrugs hydrolysis. The metabolic stability of prodrug candidates to release the parent PDE4 inhibitor could be assessed in vitro according, but not restricted, to the following protocol: feces were collected overnight on a mixture of dry and wet ice in a metabolic cage. Ten volumes (v/w; 30 mL) of 100 mM phosphate buffer (pH 6.5) were added to 3 g of freshly collected rodent feces. The mixture was homogenized with a Stomacher Circulator 400 (2 × 1 min-cycles at 225 rpm). The mixture was transferred to a 50 mL tubes, centrifuged at 10 000xg for 10 min (4° C.) and the supernatant was passed through a 0.45 µm-filter. In a 96 deep-well plate, 198 µL of feces supernatant were aliquoted in 2 wells per compound. Each compound, including positive control, was tested in duplicate. Then 2 µL of 10 mM stock solution of each test compound were spiked in individual wells (duplicate) at a final concentration of 100 µM and samples were sealed and mixed 30 sec at 1000 rpm using a vortexer. Samples were incubated at 37° C. for the desired time in the Thermomixer with constant agitation (300 rpm). At desired time-point, 25 µL of reaction mixture was added to 225 µL of ice-cold quenching solution (acetonitrile + 0.1% (v/v) formic acid) to stop the bacterial enzymatic activity. The quenched incubates were mixed and centrifuged 10 min at 21 000xg at 4° C. A real t0 (no metabolism, 100% total recovery of unchanged prodrug) was generated by adding 22.5 µL of feces supernatant to 225 µL of ice-cold quenching solution (acetonitrile + 0.1% (v/v) formic acid). Then 2.5 µL of 1 mM solution of each test compounds was added, sealed, mixed thoroughly and centrifuged 10 min at 21 000xg at 4° C. All samples, including analytical standards, were analyzed by LC-MS/MS to measure the concentration of the parent PDE4 inhibitor released and the concentration of the corresponding prodrug remaining. […]

A short description of data set [2]: Bidirectional Caco-2 permeability assay. The format is in vitro ADME. Particulars: human; Caco-2, 10 µM, apical pH 6.0 / basolateral pH 7.4, average of 2 determinations. As to the method:
In vitro glycoside prodrug permeability assessment. The permeability of the glycoside prodrugs were measured using the bidirectional Caco-2 assay. Caco-2 cells were seeded onto permeable polycarbonate supports in 12-well Costar Transwell plates and allowed to grow and differentiate for 21-25 days. On day 24, culture medium (DMEM supplemented with 10% FBS, 1% non-essential amino acids and penicillin/streptomycin) was removed from both sides of the transwell inserts and cells were rinsed with warm HBSS. […] The buffer in the donor chamber (apical side for A-to-B assay, basolateral side for B-to-A assay) was removed and replaced with the working solution (10 µM test article in transport buffer). The plates were then placed at 37° C. under light agitation. At designated time points (30, 60 and 90 min); an aliquot of transport buffer from the receiver chamber was removed and replenished with fresh transport buffer. Samples were quenched with ice-cold CH3CN containing internal standard and then centrifuged to precipitate the protein. Resulting supernatants were further diluted with 50/50 ACN/H2O (H2O only for Atenolol) and submitted for LC/MS/MS analysis. […] Atenolol and propranolol were tested as low and […] permeability references. […] The apparent permeability (Papp, measured in cm/s) of a compound is determined according to the following formula: […]
Where dQ/dt is the net rate of appearance in the receiver compartment, A is the area of the Transwell measured in cm^2 (1.12 cm^2), C0 is the initial concentration of compound added to the donor chamber and 60 is the conversion factor for the minute to second.
(In general: Passage across Caco-2 layers is used to estimate intestinal permeability.)

Data set [3] in a line: In vitro rate of glycoside prodrug hydrolysis in feces supernatant, rat. The format is in vitro ADME. Particulars: 100 µM, 37° C., pH 6.5, 24 hr. Here is the method:
(§2) In vitro rate of glycoside prodrugs hydrolysis. The metabolic stability of prodrug candidates to release the parent PDE4 inhibitor could be assessed in vitro according, but not restricted, to the following protocol: feces were collected overnight on a mixture of dry and wet ice in a metabolic cage. Ten volumes (v/w; 30 mL) of 100 mM phosphate buffer (pH 6.5) were added to 3 g of freshly collected rodent feces. The mixture was homogenized with a Stomacher Circulator 400 (2 × 1 min-cycles at 225 rpm). The mixture was transferred to a 50 mL tubes, centrifuged at 10 000xg for 10 min (4° C.) and the supernatant was passed through a 0.45 µm-filter. In a 96 deep-well plate, 198 µL of feces supernatant were aliquoted in 2 wells per compound. Each compound, including positive control, was tested in duplicate. Then 2 µL of 10 mM stock solution of each test compound were spiked in individual wells (duplicate) at a final concentration of 100 µM and samples were sealed and mixed 30 sec at 1000 rpm using a vortexer. Samples were incubated at 37° C. for the desired time in the Thermomixer with constant agitation (300 rpm). At desired time-point, 25 µL of reaction mixture was added to 225 µL of ice-cold quenching solution (acetonitrile + 0.1% (v/v) formic acid) to stop the bacterial enzymatic activity. The quenched incubates were mixed and centrifuged 10 min at 21 000xg at 4° C. A real t0 (no metabolism, 100% total recovery of unchanged prodrug) was generated by adding 22.5 µL of feces supernatant to 225 µL of ice-cold quenching solution (acetonitrile + 0.1% (v/v) formic acid). Then 2.5 µL of 1 mM solution of each test compounds was added, sealed, mixed thoroughly and centrifuged 10 min at 21 000xg at 4° C. All samples, including analytical standards, were analyzed by LC-MS/MS to measure the concentration of the parent PDE4 inhibitor released and the concentration of the corresponding prodrug remaining. A set criteria of 100% recovery is targeted where the summation of the % of prodrug remaining and the % of parent PDE4 inhibitor released should be 100% with an experimental error tolerance of ± 20%. When prodrugs represented by Formula (I) were incubated 24 hours under the conditions described above using mouse, rat and dog feces, the glycoside prodrugs were hydrolyzed to release the corresponding parent PDE4 inhibitor III (Table 3). As a negative control, when compound 4, 10 and 21 were incubated 24 hours under the conditions described above but in the absence of enzyme activities, using mouse feces extract supernatant inactivated by boiling the supernatant 10 minutes, 100% of the prodrugs were recovered unchanged.

The nature of data set [4]: In vitro rate of glycoside prodrug hydrolysis in feces supernatant, mouse. The format is in vitro ADME. Conditions: 100 µM, 37° C., pH 6.5, 24 hr. As to the method: as §2
In the next data set the test system is β-D-glucuronidase. The data set is described as follows: Positive control: incubation with β-D-glucuronidase in phosphate buffer. The format is in vitro ADME. Particulars: β-D-glucuronidase 50U/mL, phosphate buffer pH 6.5, 37° C., 24 hours.
Data set [5] concerns type-IV cAMP-specific phosphodiesterases. The data set is described as follows: Inhibitory potency against PDE4 isozymes (isozyme not given). The data set is classed as biochemical. Conditions: sample contaminated with 0.17% of IIIa, which accounts for 100% of the potency recorded; read-out: IC50 (PDE4, isozyme not stated).
Data set [6] in a line: In vitro rate of glycoside prodrug hydrolysis in feces supernatant, dog. The data set is classed as in vitro ADME. Particulars: 100 µM, 37° C., pH 6.5, 24 hr. Here is the method: as §1, with “At desired time-point, 25 µL of reaction mixture was added to 225 µL of ice-cold quenching solution (acetonitrile + 0.1% (v/v) formic acid) to stop the bacterial enzymatic activity. The quenched incubates were mixed and centrifuged 10 min at 21 000xg at 4° C. A real t0 (no metabolism, 100% total recovery of unchanged prodrug) was generated by adding 22.5 µL of feces supernatant to 225 µL of ice-cold quenching solution (acetonitrile + 0.1% (v/v) formic acid). Then 2.5 µL of 1 mM solution of each test compounds was added, sealed, mixed thoroughly and centrifuged 10 min at 21 000xg at 4° C.” left out

In the next data set the target is PDE4D2 (Homo sapiens, UniProt Q08499). The data set is described as follows: Inhibitory potency against PDE4 isozymes (FAM-cAMP fluorescence polarization), PDE4D2. (Polarisation of emitted light reports the rotation of a fluorescent probe.)
Chain of PDE4D2 (Q08499 303-809 limits assumed): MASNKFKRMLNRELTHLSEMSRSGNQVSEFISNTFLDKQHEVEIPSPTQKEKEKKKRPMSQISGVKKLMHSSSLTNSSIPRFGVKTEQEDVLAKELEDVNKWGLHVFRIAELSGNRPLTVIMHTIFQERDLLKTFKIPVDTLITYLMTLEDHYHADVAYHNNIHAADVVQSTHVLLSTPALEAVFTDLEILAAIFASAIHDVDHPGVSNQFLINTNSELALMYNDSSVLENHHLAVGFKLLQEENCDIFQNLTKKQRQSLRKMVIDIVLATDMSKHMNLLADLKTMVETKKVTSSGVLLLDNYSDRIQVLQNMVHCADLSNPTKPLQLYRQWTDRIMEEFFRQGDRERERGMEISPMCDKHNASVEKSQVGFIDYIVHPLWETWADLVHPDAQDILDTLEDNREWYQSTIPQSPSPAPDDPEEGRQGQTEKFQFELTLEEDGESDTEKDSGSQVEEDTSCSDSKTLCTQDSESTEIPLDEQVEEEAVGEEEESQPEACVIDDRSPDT
Another data set deals with PDE4B1 (Homo sapiens, UniProt Q07343). Kind of data set: Inhibitory potency against PDE4 isozymes (FAM-cAMP fluorescence polarization), PDE4B1.
Chain of PDE4B1 (Q07343 whole entry, species assumed): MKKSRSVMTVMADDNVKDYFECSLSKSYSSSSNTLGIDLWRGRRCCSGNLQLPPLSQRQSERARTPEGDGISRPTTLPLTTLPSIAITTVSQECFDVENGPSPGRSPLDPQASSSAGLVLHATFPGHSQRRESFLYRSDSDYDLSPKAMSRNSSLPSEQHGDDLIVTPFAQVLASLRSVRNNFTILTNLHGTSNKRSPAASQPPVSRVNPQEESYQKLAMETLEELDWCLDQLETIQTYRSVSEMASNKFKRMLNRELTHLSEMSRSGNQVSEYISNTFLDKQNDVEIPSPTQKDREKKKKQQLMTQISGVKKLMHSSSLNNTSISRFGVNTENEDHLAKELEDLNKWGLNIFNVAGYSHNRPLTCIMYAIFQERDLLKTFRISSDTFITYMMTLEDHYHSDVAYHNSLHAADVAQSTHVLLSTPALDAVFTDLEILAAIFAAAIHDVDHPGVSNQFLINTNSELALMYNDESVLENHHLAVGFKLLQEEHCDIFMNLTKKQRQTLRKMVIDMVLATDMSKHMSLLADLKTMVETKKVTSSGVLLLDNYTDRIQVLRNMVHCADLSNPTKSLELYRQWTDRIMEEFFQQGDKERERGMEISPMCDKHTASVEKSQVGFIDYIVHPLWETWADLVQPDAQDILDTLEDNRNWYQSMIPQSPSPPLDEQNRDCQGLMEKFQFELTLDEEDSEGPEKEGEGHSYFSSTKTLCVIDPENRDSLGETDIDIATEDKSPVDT
Data set [7] concerns LPS-induced TNFα in human whole blood. Kind of data set: LPS-induced TNFα assay in human whole blood. The data set is classed as cell-based. Particulars: human whole blood from 12 healthy volunteers, LPS 1 µg/mL, 24 h; read-out: average IC50, TNFα inhibition.
Protocol: TNFα inhibition assay protocol. Potency of PDE4 inhibitors in the LPS-induced TNFα assay in human whole blood was measured using the following protocol: fresh blood is collected in heparinized tubes by venipuncture from healthy human volunteers (male and female). These subjects should not have apparent inflammatory conditions, no symptoms of bacterial/viral infection, no fever and should not take any NSAIDs for at least 1 week prior to blood collection. Blood from each donor was dispensed in a 96-deep well plate, 500 µL per well. Blood was pre-incubated with either 2 µL of vehicle (DMSO) or test compound at 37° C. /5% CO2 for 15 min. […] Duplicate independent incubations were performed for each inhibitor concentration with blood from each donor. Appropriate PBS controls (no LPS) were used as blanks (4 wells) while blood samples stimulated with LPS controls (no PDE4 inhibitor) served as positive controls (4 wells). […] Plasma TNFα was quantified by ELISA (Invitrogen, Frederick, MD, USA) following the manufacturer’s instructions. […] Assay plates were read on an Infinite F200 PRO-Tecan reader at 450 nm. Absorbance values were converted to % inhibition based on positive and negative control values on each plate, and resulting % inhibition data were fit to a four-parameter logistic by nonlinear regression using GraphPad Prism (version 6.00, GraphPad Software, Inc., La Jolla, CA, USA). […]
The target of the next data set is PDE4A1A (Homo sapiens, UniProt P27815). The data set is described as follows: Inhibitory potency against PDE4 isozymes (FAM-cAMP fluorescence polarization), PDE4A1A.
Chain of PDE4A1A (P27815 1-647 isoform P27815-4): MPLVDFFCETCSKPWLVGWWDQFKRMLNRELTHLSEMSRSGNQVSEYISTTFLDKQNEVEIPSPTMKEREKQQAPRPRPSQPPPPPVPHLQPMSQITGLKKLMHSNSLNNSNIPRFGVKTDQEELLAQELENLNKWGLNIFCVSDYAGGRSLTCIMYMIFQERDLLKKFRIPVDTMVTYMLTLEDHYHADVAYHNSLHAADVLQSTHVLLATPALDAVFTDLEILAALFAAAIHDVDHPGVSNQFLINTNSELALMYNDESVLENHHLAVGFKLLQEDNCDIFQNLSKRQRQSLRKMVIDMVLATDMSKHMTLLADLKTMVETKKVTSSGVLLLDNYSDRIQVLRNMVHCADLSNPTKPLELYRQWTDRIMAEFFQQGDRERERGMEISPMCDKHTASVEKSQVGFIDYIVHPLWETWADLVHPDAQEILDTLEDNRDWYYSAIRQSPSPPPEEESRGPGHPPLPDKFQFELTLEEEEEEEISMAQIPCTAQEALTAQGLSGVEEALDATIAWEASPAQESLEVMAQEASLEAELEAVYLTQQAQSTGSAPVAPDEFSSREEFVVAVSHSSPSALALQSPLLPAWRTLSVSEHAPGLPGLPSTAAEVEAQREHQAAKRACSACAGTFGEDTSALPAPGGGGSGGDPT

A value given as a limit tells only on which side of the number the result lay.

As for `CC(C)(O)c1ccc([C@@H](Cc2ccc(OC3O[C@H](CO)[C@@H](O)[C@H](O)[C@H]3N)nc2)c2ccc(OC(F)F)c(OC3CC3)c2)cn1` (mixture of isomers) [Compound 21, (2R,3S,4R,5R)-5-amino-6-((5-((S)-2-(3-cyclopropoxy-4-(difluoromethoxy)phenyl)-2-(6-(2-hydroxypropan-2-yl)pyridin-3-yl)ethyl)pyridin-2-yl)oxy)-2-(hydroxymethyl)tetrahydro-2H-pyran-3,4-diol], in data set [1], the prodrug recovered unchanged is listed as 100%.
`CC(C)(O)c1ccc([C@@H](Cc2ccc(O[C@@H]3O[C@H](CO)[C@@H](O)[C@H](O)[C@H]3O)nc2)c2ccc(OC(F)F)c(OC3CC3)c2)cn1` [Compound 4, (2S,3R,4S,5S,6R)-2-((5-((S)-2-(3-cyclopropoxy-4-(difluoromethoxy)phenyl)-2-(6-(2-hydroxypropan-2-yl)pyridin-3-yl)ethyl)pyridin-2-yl)oxy)-6-(hydroxymethyl)tetrahydro-2H-pyran-3,4,5-triol]: the Papp A→B at 10 µM in [2] came to 0.08 ×10⁻⁶ cm/s. The “Prodrug Remaining @ 24 hr (%)” value amounted to 0.0% in data set [3] and 0.1% in data set [4]. Also, the prodrug recovered unchanged in data set [1] worked out at 100%.
In turn, `CC(=O)OC[C@H]1O[C@@H](Oc2ccc(C[C@H](c3ccc(C(C)(C)O)nc3)c3ccc(OC(F)F)c(OC4CC4)c3)cn2)[C@H](O)[C@@H](OC(C)=O)[C@@H]1OC(C)=O` [Compound 5, (2R,3R,4R,5R,6S)-2-(acetoxymethyl)-6-((5-((S)-2-(3-cyclopropoxy-4-(difluoromethoxy)phenyl)-2-(6-(2-hydroxypropan-2-yl)pyridin-3-yl)ethyl)pyridin-2-yl)oxy)-5-hydroxytetrahydro-2H-pyran-3,4-diyl diacetate] showed a Papp A→B at 10 µM in data set [2] of 0.9 ×10⁻⁶ cm/s. Further, the “Prodrug Remaining @ 24 hr (%)” value in data set [3] and in [4] was 0.0% each time.
On to `CC(C)(O)c1ccc([C@@H](Cc2ccc(O[C@@H]3O[C@H](C(=O)[O-])[C@@H](O)[C@H](O)[C@H]3O)nc2)c2ccc(OC(F)F)c(OC3CC3)c2)cn1.[Li+]` [Compound 9, lithium (2S,3S,4S,5R,6S)-6-((5-((S)-2-(3-cyclopropoxy-4-(difluoromethoxy)phenyl)-2-(6-(2-hydroxypropan-2-yl)pyridin-3-yl)ethyl)pyridin-2-yl)oxy)-3,4,5-trihydroxytetrahydro-2H-pyran-2-carboxylate], for which the “Prodrug Remaining @ 24 hr (%)” value in data set [3] is given as 4.2%; in data set [4] it was 3.3%. Moreover, the prodrug recovered unchanged in the data set on β-D-glucuronidase was 2%.
Turning to `N[C@H]1[C@H](Oc2ccc(C[C@@H](c3ccc(OC(F)F)c(OC4CC4)c3)c3cnc(C(O)(C(F)(F)F)C(F)(F)F)s3)cn2)O[C@H](CO)[C@@H](O)[C@@H]1O` [Compound 22, (2R,3S,4R,5R,6S)-5-amino-6-((5-((S)-2-(3-cyclopropoxy-4-(difluoromethoxy)phenyl)-2-(2-(1,1,1,3,3,3-hexafluoro-2-hydroxypropan-2-yl)thiazol-5-yl)ethyl)pyridin-2-yl)oxy)-2-(hydroxymethyl)tetrahydro-2H-pyran-3,4-diol], the Papp A→B at 10 µM in [2] came to 0.2 ×10⁻⁶ cm/s. Further, in data set [4], the “Prodrug Remaining @ 24 hr (%)” value came to 62%. In data set [5], the IC50 is greater than 100 nM.
With `CC(C)(O)c1ccc([C@@H](Cc2ccc(O[C@@H]3O[C@H](CO)[C@@H](O)[C@H](O)[C@H]3N)nc2)c2ccc(OC(F)F)c(OC3CC3)c2)cn1` [Compound 23, (2R,3S,4R,5R,6S)-5-amino-6-((5-((S)-2-(3-cyclopropoxy-4-(difluoromethoxy)phenyl)-2-(6-(2-hydroxypropan-2-yl)pyridin-3-yl)ethyl)pyridin-2-yl)oxy)-2-(hydroxymethyl)tetrahydro-2 H-pyran-3,4-diol], the “Prodrug Remaining @ 24 hr (%)” value in [6] stood at 75%; in data set [4] it was 65%.
In data set [2], `C[N+](C)(C)[C@H]1[C@H](Oc2ccc(C[C@@H](c3ccc(OC(F)F)c(OC4CC4)c3)c3cnc(C(O)(C(F)(F)F)C(F)(F)F)s3)cn2)O[C@H](CO)[C@@H](O)[C@@H]1O.[I-]` [Compound 26, (2S,3R,4R,5S,6R)-2-((5-((S)-2-(3-cyclopropoxy-4-(difluoromethoxy)phenyl)-2-(2-(1,1,1,3,3,3-hexafluoro-2-hydroxypropan-2-yl)thiazol-5-yl)ethyl)pyridin-2-yl)oxy)-4,5-dihydroxy-6-(hydroxymethyl)-N,N,N-trimethyltetrahydro-2H-pyran-3-aminium iodide] gave a Papp A→B at 10 µM of 2.8 ×10⁻⁶ cm/s. Further, the “Prodrug Remaining @ 24 hr (%)” value in [4] was 96%.
On to `CC(C)(O)c1ccc([C@@H](Cc2ccc(O[C@@H]3O[C@H](CO)[C@@H](O[C@@H]4O[C@H](CO)[C@@H](O)[C@H](O)[C@H]4O)[C@H](O)[C@H]3O)nc2)c2ccc(OC(F)F)c(OC3CC3)c2)cn1` [Compound 31, (2S,3R,4S,5S,6R)-2-(((2R,3S,4R,5R,6S)-6-((5-((S)-2-(3-cyclopropoxy-4-(difluoromethoxy)phenyl)-2-(6-(2-hydroxypropan-2-yl)pyridin-3-yl)ethyl)pyridin-2-yl)oxy)-4,5-dihydroxy-2-(hydroxymethyl)tetrahydro-2H-pyran-3-yl)oxy)-6-(hydroxymethyl)tetrahydro-2H-pyran-3,4,5-triol], for which, in data set [2], the Papp A→B at 10 µM is 0.02 ×10⁻⁶ cm/s. In addition, in data set [3], the “Prodrug Remaining @ 24 hr (%)” value was 0.6%.
Compound `O=c1ccc(C[C@@H](c2ccc(OC(F)F)c(OC3CC3)c2)c2cnc(C(O)(C(F)(F)F)C(F)(F)F)s2)c[nH]1` [IIIa, (S)-5-(2-(3-cyclopropoxy-4-(difluoromethoxy)phenyl)-2-(2-(1,1,1,3,3,3-hexafluoro-2-hydroxypropan-2-yl)thiazol-5-yl)ethyl)pyridin-2(1H)-one] showed a Papp A→B at 10 µM in data set [2] of 19.1 ×10⁻⁶ cm/s. The IC50 against PDE4D2 was less than 10 nM; on PDE4B1, less than 10 nM; in data set [7] it was less than 50 nM; on PDE4A1A, less than 10 nM.
